Results as given in publication PMC9230590, “Pharmacokinetics and Tissue Distribution of Enavogliflozin in Mice and Rats” (Pharmaceutics, 2022).
Several values for one entry are separate records, joined by “and”; a condition that tells them apart may be missing. Equal values may be shown once. Read-outs that look alike come from different tables or passages of the source.

Assays:
[1] = Recovery from urine and feces over 72 h in mice; format: in vivo, ICR mice; conditions: for Recovery, Feces / Recovery, Urine: parent form
Method: Three mice received enavogliflozin (1 mg/kg) intravenously and were returned to metabolic cages with food and water ad libitum and urine and feces samples were collected every 24 h for 72 h. Urine and feces were weighed, and 30 µL aliquots of urine and 50 µL aliquots of 10% feces homogenates were stored at −80 °C until enavogliflozin analysis. Four mice received enavogliflozin (1 mg/kg) by oral gavage and were returned to their metabolic cages to collect urine and feces samples every 24 h for 72 h with the same protocols described above.
(§1) Concentrations of enavogliflozin in plasma and tissue homogenate samples were analyzed using an Agilent 6430 triple quadrupole liquid chromatography-mass spectrometry (LC–MS/MS) system (Agilent, Wilmington, DE, USA) following a previously published method.
Aliquots of plasma or urine (30 µL each) and tissue homogenate (50 µL each) were added to 100 µL of aqueous solution of d4-enavogliflozin (IS, 20 ng/mL), and vigorously mixed with 500 µL MTBE for 15 min. After centrifugation at 16,000× g for 5 min, samples were kept for 1 h, at a temperature of −80 °C to freeze the aqueous layer freeze. The organic upper layer was then transferred to a clean tube and evaporated to dryness under a gentle stream of nitrogen. The dried extract was reconstituted in 150 µL of mobile phase, and a 3 µL aliquot was injected into the LC–MS/MS system. Enavogliflozin was separated on a Synergi Polar RP column (2.0 × 150 mm, 4 µm particle size; Phenomenex, Torrence, CA, USA) using a isocratic mobile phase consisting of water (15%) and methanol (85%) containing 0.1% formic acid at a flow rate of 0.25 mL/min.

hepatocytes [2] = system: hepatocytes; design: method as in PMID 32932946; conditions: monkey hepatocytes; cited from earlier work
[3] = Pharmacokinetics after intravenous injection in rats; format: in vivo, Sprague Dawley (SD) rats; conditions: for AUC∞/D / Co/D: dose normalized; for Co / half-life / MRT / clearance / Vd / AUC(0-inf) / AUC(0-t): plasma; for half-life / MRT / clearance / Vd / AUC(0-inf) / AUC(0-t): rat; for half-life / MRT: incomplete elimination phase; for Vd: read-out: Vd,ss
Method: Twelve rats were randomly divided into three groups (n = 4 per each group) and injected with an enavogliflozin solution at doses of 0.3, 1, and 3 mg/kg. The drug was dissolved in a mixture of 10% DMSO and 90% saline and administered intravenously via the tail vein. Before blood sampling, rats were anesthetized using 2% isoflurane in a vaporizer with an oxygen flow of 0.8 L/min, for 5 min. Blood samples (approximately 100 µL) were collected at 0, 0.05, 0.33, 0.67, 1, 2, 4, 6, and 8 h via the jugular vein under isoflurane anesthesia using a heparin-treated 1 mL syringe (Jung Lim Co. Ltd., Jincheon, Korea). Samples were centrifuged at 12,000× g for 1 min to separate the plasma. An aliquot (30 µL) of each plasma sample was stored at −80 °C until analysis.
as §1
The data were expressed as the means ± standard deviation for the groups. Pharmacokinetic parameters, such as the area under the plasma concentration–time curve during the period of observation (AUClast), AUC to infinite time (AUC∞), clearance (CL), and volume of distribution at steady-state (Vd,ss), the terminal half-life (t1/2), and mean residence time (MRT) were calculated using non-compartment analysis with WinNonlin software (version 5.1; Pharsights, Cary, NC, USA). The AUC ratios were calculated by dividing the AUClast of enavogliflozin in the tissue samples by the plasma AUClast values of enavogliflozin [15].

hepatocytes [4] = system: hepatocytes; design: method as in PMID 32932946; conditions: dog hepatocytes; cited from earlier work
SGLT2 = system: SGLT2; design: method as in PMID 32183468; conditions: cited from earlier work

SMILES: OC[C@H]1O[C@@H](c2cc(Cc3ccc(C4CC4)cc3)c(Cl)c3c2CCO3)[C@H](O)[C@@H](O)[C@@H]1O [enavogliflozin, (2S,3R,4R,5S,6R)-2-(7-chloro-6-(4-cyclopropylbenzyl) -2,3-dihydrobenzofuran-4-yl)-6-(hydroxymethyl)tetrahydro-2H-pyran-3,4,5-triol]
- Recovery in feces relative to urine ([1]; 1 mg/kg IV): about 6 fold
- Recovery, Feces ([1]; 1 mg/kg IV, 0–24 h, 1 mg/kg): 36.3 % of Dose and 36.3 ± 3.6 % of Dose
- Recovery, Urine ([1]; 1 mg/kg IV, 0–24 h, 1 mg/kg): 6.3 % of Dose and 6.3 ± 0.8 % of Dose
- Recovery, Feces ([1]; 1 mg/kg IV, 0–72 h, 1 mg/kg): 39.3 ± 3.5 % of Dose and 39.3 % of Dose
- Recovery, Urine ([1]; 1 mg/kg IV, 0–72 h, 1 mg/kg): 6.6 ± 0.7 % of Dose and 6.6 % of Dose
- Recovery, Feces ([1]; 1 mg/kg IV, 24–48 h): 2.7 ± 1.3 % of Dose
- Recovery, Urine ([1]; 1 mg/kg IV, 24–48 h): 0.1 ± 0.0 % of Dose
- Recovery, Feces ([1]; 1 mg/kg IV, 48–72 h): 0.4 ± 0.1 % of Dose
- Recovery, Feces ([1]; 1 mg/kg PO, 0–24 h): 50.6 ± 11.1 % of Dose
- Recovery, Urine ([1]; 1 mg/kg PO, 0–24 h): 6.6 ± 0.6 % of Dose
- Recovery, Urine ([1]; 1 mg/kg PO, 0–72 h): 6.8 ± 0.6 % of Dose
- Recovery, Feces ([1]; 1 mg/kg PO, 0–72 h, 1 mg/kg): 51.4 % of Dose and 51.4 ± 11.5 % of Dose
- Recovery, Feces ([1]; 1 mg/kg PO, 24–48 h): 0.72 ± 0.4 % of Dose
- Recovery, Urine ([1]; 1 mg/kg PO, 24–48 h): 0.1 ± 0.0 % of Dose
- Recovery, Feces ([1]; 1 mg/kg PO, 48–72 h): 0.2 ± 0.1 % of Dose
- dose excreted ([1]; ICR, mouse, urine and feces, 1 mg/kg IV, 72 h, read-out: total recovery (feces + urine)): ~46%
- In vitro hepatic clearance (hepatocytes [2]): 18.5 mL/min/kg
- AUC∞/D ([3]; IV 0.3 mg/kg): 2831.6 ± 359.0
- Co/D ([3]; IV 0.3 mg/kg): 4231.2 ± 1720.0
- Co ([3]; IV 0.3 mg/kg): 1269.4 ± 516.0 ng/mL
- AUC∞/D ([3]; IV 1 mg/kg): 2798.6 ± 551.4
- Co/D ([3]; IV 1 mg/kg): 3956.4 ± 1028.2
- Co ([3]; IV 1 mg/kg): 3956.4 ± 1028.2 ng/mL
- AUC∞/D ([3]; IV 3 mg/kg): 2462.4 ± 429.3
- Co/D ([3]; IV 3 mg/kg): 3419.4 ± 1364.8
- Co ([3]; IV 3 mg/kg): 10,258.1 ± 4094.5 ng/mL
- plasma concentrations at 24 h ([3]; IV 0.3, 1, and 3 mg/kg groups): below the detection limit
- half-life ([3]; Sprague Dawley, IV 0.3 mg/kg): 2.6 ± 0.4 h
- half-life ([3]; Sprague Dawley, IV 1 mg/kg): 2.9 ± 0.4 h
- half-life ([3]; Sprague Dawley, IV 3 mg/kg): 4.3 ± 0.6 h
- MRT ([3]; Sprague Dawley, IV 0.3 mg/kg): 2.5 ± 0.4 h
- clearance ([3]; Sprague Dawley, IV 0.3 mg/kg, read-out: CL): 6 ± 0.8 mL/min/kg
- Vd ([3]; Sprague Dawley, IV 0.3 mg/kg): 0.9 ± 0.2 L/kg
- MRT ([3]; Sprague Dawley, IV 1 mg/kg): 2.9 ± 0.4 h
- clearance ([3]; Sprague Dawley, IV 1 mg/kg, read-out: CL): 6.2 ± 1.4 mL/min/kg
- Vd ([3]; Sprague Dawley, IV 1 mg/kg): 1.1 ± 0.1 L/kg
- MRT ([3]; Sprague Dawley, IV 3 mg/kg): 5.1 ± 1.1 h
- clearance ([3]; Sprague Dawley, IV 3 mg/kg, read-out: CL): 6.9 ± 1.2 mL/min/kg
- Vd ([3]; Sprague Dawley, IV 3 mg/kg): 2.1 ± 0.4 L/kg
- AUC(0-inf) ([3]; Sprague-Dawley, IV 0.3 mg/kg): 850 ± 108 ng·h/mL
- AUC(0-t) ([3]; Sprague-Dawley, IV 0.3 mg/kg): 784 ± 94.4 ng·h/mL
- AUC(0-inf) ([3]; Sprague-Dawley, IV 1 mg/kg): 2800 ± 551 ng·h/mL
- AUC(0-t) ([3]; Sprague-Dawley, IV 1 mg/kg): 2510 ± 447 ng·h/mL
- AUC(0-inf) ([3]; Sprague-Dawley, IV 3 mg/kg): 7390 ± 1290 ng·h/mL
- AUC(0-t) ([3]; Sprague-Dawley, IV 3 mg/kg): 5610 ± 751 ng·h/mL
- clearance ([3]; Sprague-Dawley, IV 0.3–3 mg/kg, all doses together, read-out: Systemic clearance): 6.35 ± 1.14 mL/min/kg
- In vitro hepatic clearance (hepatocytes [4]): 17.9 mL/min/kg
- IC50 (SGLT2): 0.8 ± 0.3 nM
- mode of SGLT2 inhibition (SGLT2; restrained recovery of SGLT2 activity after removal): reversibly and competitively inhibited SGLT2
- difference in IC50 values for SGLT2 versus SGLT1 (SGLT2; selectivity SGLT2 over SGLT1): 667 fold
